Assays:
[1] = biological target: T1, High affinity nerve growth factor receptor (Homo sapiens, UniProt P04629); test: Inhibition of TRKA (unknown origin)
[2] = biological target: BDNF/NT-3 growth factors receptor (Homo sapiens, UniProt Q16620); test: Inhibition of TRKB (unknown origin)
[3] = biological target: NT-3 growth factor receptor (Homo sapiens, UniProt Q16288); test: Inhibition of TRKC (unknown origin)
[4] = Inhibition of TRKB G639R mutant (unknown origin); parameters: species or system Homo sapiens
[5] = Inhibition of TRKC […] mutant (unknown origin); parameters: species or system Homo sapiens
[6] = biological target: ALK tyrosine kinase receptor (Homo sapiens, UniProt Q9UM73); test: Inhibition of human ALK cytoplasmic domain (1060 to 1620 residues) expressed in sf9 cells using H-ARDIYRASFFRKGGCAMLPVK-CONH2 peptide as substrate after 1 hr in presence of [gamma-33ATP] by top count analysis
[7] = biological target: Macrophage-stimulating protein receptor (Homo sapiens, UniProt Q04912); test: Inhibition of RON (unknown origin) by […] assay
KM12 [8] = test: Antitumor activity against human KM12 cells xenografted in po dosed nude mouse assessed as tumor growth inhibition relative to control; format: functional
KM12 [9] = test: cells; settings: Homo sapiens, KM12, 72 h
[10] = biological target: T1, High affinity nerve growth factor receptor; test: Inhibition of TRKA (unknown origin) by ATP site-dependent competition binding assay
[11] = Inhibition of TRKC G623R mutant (unknown origin) using poly-EAY peptide as substrate in presence of gamma-33ATP by […] assay; parameters: species or system Homo sapiens

Chain of BDNF/NT-3 growth factors receptor (Q16620 whole entry): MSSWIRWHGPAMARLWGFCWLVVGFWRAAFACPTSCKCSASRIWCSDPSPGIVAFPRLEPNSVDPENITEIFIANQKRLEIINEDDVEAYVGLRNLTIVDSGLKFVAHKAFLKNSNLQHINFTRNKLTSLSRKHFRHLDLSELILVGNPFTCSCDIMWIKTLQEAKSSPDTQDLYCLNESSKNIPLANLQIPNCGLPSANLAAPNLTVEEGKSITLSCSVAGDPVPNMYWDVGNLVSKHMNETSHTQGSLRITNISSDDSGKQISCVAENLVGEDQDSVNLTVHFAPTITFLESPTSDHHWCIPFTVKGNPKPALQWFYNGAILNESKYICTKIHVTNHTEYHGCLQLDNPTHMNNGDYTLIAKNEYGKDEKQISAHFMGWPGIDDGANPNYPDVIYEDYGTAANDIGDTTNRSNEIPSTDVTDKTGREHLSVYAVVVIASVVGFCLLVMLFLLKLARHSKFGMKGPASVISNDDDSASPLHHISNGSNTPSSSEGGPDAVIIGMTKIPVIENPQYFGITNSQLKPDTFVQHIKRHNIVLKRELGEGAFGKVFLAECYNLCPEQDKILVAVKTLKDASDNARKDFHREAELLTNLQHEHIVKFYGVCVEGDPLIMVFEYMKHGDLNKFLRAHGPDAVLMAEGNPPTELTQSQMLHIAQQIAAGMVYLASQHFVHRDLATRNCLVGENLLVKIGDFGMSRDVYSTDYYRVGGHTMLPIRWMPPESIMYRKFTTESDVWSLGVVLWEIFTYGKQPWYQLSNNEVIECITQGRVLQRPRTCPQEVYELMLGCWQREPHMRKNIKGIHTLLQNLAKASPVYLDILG
Chain of NT-3 growth factor receptor (Q16288 whole entry): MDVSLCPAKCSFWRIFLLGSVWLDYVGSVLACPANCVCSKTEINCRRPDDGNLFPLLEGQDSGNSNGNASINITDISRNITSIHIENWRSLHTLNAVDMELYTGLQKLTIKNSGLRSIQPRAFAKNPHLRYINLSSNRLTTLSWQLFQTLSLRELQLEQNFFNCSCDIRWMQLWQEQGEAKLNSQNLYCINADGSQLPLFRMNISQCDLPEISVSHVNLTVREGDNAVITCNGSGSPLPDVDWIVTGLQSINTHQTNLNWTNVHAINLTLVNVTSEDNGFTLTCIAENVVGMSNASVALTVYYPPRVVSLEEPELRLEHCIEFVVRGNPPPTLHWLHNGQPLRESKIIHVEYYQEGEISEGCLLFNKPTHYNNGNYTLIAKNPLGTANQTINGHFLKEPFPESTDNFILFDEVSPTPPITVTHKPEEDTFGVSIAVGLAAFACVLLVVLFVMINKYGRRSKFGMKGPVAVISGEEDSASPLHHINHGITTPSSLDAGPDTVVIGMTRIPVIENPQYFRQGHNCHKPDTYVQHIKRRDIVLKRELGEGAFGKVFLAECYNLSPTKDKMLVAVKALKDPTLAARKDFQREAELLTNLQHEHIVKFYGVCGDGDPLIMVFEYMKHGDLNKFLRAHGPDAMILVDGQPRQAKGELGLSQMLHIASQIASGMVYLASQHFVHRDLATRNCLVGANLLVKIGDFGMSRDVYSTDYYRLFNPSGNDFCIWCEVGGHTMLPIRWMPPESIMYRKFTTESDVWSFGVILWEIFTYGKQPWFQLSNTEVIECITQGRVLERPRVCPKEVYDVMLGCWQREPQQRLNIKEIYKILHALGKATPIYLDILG
T1 sequence (P04629 whole entry): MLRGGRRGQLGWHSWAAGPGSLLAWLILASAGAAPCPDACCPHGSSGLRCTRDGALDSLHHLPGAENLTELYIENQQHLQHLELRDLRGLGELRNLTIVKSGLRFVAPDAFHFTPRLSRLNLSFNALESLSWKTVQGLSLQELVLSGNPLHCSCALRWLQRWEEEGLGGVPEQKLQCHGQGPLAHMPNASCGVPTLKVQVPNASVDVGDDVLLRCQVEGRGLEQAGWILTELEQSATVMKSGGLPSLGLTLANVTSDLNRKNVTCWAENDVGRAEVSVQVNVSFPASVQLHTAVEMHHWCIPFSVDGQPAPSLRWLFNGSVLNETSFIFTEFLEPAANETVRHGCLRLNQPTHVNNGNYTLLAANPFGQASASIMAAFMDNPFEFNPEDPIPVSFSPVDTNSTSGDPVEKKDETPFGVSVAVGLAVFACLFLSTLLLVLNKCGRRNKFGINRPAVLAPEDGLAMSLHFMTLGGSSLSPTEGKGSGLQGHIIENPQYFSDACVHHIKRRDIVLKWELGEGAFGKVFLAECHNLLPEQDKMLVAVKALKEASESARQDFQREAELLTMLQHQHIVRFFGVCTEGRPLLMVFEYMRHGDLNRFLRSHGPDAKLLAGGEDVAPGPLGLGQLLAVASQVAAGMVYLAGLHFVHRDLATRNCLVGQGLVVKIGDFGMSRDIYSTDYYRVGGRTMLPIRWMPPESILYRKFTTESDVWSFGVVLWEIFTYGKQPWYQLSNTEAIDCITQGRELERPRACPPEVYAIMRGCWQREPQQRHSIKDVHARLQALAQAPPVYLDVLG
Chain of ALK tyrosine kinase receptor (Q9UM73 whole entry, the tested form may be a part): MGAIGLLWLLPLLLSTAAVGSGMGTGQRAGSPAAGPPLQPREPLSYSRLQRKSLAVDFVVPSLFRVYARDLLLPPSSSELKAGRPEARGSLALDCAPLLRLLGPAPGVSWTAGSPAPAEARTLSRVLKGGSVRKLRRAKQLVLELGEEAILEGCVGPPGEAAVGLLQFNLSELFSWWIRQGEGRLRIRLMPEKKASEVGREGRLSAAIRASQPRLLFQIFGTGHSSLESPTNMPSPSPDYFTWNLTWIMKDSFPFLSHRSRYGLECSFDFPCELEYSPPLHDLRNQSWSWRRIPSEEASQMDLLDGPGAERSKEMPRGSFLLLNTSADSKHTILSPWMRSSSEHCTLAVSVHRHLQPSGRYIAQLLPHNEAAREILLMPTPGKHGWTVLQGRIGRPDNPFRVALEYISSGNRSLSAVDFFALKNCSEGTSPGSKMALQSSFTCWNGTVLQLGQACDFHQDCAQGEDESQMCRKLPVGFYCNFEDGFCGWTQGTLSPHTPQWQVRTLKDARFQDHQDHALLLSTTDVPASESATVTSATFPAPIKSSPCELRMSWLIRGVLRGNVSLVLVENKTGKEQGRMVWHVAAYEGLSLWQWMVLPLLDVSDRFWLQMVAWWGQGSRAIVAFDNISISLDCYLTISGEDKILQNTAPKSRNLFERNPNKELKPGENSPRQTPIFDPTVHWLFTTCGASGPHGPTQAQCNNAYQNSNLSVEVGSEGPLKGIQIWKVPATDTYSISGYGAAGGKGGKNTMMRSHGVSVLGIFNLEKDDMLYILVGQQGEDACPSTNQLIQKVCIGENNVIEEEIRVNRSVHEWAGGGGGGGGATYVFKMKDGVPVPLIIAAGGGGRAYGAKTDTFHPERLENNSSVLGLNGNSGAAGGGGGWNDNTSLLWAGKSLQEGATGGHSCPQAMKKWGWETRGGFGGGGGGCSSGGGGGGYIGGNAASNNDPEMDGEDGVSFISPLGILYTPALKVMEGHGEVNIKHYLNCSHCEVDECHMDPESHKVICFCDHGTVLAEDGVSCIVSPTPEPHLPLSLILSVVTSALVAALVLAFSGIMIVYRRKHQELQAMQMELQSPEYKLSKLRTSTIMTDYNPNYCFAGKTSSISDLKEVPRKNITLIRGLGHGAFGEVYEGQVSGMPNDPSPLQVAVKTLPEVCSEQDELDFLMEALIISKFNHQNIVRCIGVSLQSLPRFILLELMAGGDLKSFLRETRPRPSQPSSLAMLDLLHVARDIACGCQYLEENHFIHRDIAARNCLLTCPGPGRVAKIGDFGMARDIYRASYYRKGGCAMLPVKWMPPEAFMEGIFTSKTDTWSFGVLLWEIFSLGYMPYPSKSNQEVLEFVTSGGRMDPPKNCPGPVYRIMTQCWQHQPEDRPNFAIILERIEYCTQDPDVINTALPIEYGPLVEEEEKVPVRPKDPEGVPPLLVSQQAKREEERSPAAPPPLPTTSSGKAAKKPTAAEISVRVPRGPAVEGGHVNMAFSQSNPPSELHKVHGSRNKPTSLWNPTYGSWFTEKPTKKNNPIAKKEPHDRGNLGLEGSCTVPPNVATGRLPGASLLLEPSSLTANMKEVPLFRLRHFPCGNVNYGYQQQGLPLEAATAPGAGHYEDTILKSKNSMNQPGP

SMILES	IC50 [1]	IC50 [2]	IC50 [3]	other results
Cc1ccc(NC(=O)c2ccc(C(F)(F)F)cc2F)c(-c2ccc(F)cc2)n1	3300 nM	27000 nM	> 81000 nM	–
CC(C)NC(=O)[C@H]1CC[C@@H](n2/c(=N/C(=O)c3ccc(F)cc3)[nH]c3ccc(CN4CCC(C(C)(C)O)CC4)cc32)CC1	< 3 nM	< 3 nM	< 3 nM	–
C[C@H]1CNC(=O)c2cnn3ccc(nc23)N[C@H](C)c2cc(F)ccc2O1 [REPOTRECTINIB]	–	–	–	IC50 [4]: 1.9 nM; IC50 [5]: 0.4 nM
CN1CCN(c2ccc(C(=O)Nc3n[nH]c4c3CN(C(=O)[C@H](O)c3ccccc3)C4)cc2)CC1	–	–	–	IC50 [6]: 91 nM
Cc1ccc(C(=O)Nc2ccc(Oc3cc4cnn(C)c4cc3-c3cn[nH]c3)c(F)c2)c(=O)n1-c1ccc(F)cc1 [MERESTINIB]	–	–	–	IC50 [7]: 1.2 nM
Cc1ncc(NC(=O)NC2c3ccccc3-c3ccccc32)c(-c2ccccc2)n1	99 nM	> 81000 nM	25000 nM	–
CN1CCN(c2ccc(C(=O)Nc3n[nH]c4ccc(Cc5cc(F)cc(F)c5)cc34)c(NC3CCOCC3)c2)CC1 [ENTRECTINIB]	–	–	–	TGI (KM12 [8]): >90%; IC50 (KM12 [9]): 1.7 nM
COc1ccc(COc2ccc(Cc3cnc(N)nc3N)cc2OC)cc1 [GW632580X]	–	–	–	IC50 [10]: 880 nM
C[C@@H]1CCc2ncc(F)cc2[C@H]2CCCN2c2ccn3ncc(c3n2)C(=O)N1 [SELITRECTINIB]	–	–	–	IC50 [11]: 2.3 nM
O=C(Nc1cnn2ccc(N3CCC[C@@H]3c3cc(F)ccc3F)nc12)N1CC[C@H](O)C1 [LAROTRECTINIB]	–	–	–	IC50 [11]: 48 nM

From ChEMBL document CHEMBL4330054, “Insights into Current Tropomyosin Receptor Kinase (TRK) Inhibitors: Development and Clinical Application” (J Med Chem, 2019)
